Where two headings read alike, the source gives them in different places. Bridge positions count the residues as written; N and C are the ends. Square brackets hold non-standard residues; d marks the D form. Peptide text beside a SMILES is read from it. Trp(1-Me) = Cn1cc(C[C@H](N)C(=O)O)c2ccccc21; NMeY = CN[C@@H](Cc1ccc(O)cc1)C(=O)O; NMeV = CN[C@H](C(=O)O)C(C)C; NMeA = CN[C@@H](C)C(=O)O; Nle = CCCC[C@H](N)C(=O)O; Sar = CNCC(=O)O

Assay [1] has as its system classical pathway of complement. Kind of assay: Inhibition of classical pathway complement activation, ELISA in human serum. Format: biochemical. As to conditions: for IC50: read-out: IC50; for rP: relative potency compared to peptide 14; for inhibition of complement activation, result in words: ELISA, N-methylation scan. As for the experimental part:
The ability of the compstatin analogs to inhibit the activation of the classical pathway of complement was assessed by ELISA (Mallik et al., 2005, J Med Chem 48:274-86). In brief, complement was activated in human serum using an antigen-antibody complex in the presence or absence of compstatin analogs, and the deposition of C3 fragments on the plate surface was detected using an HRP-conjugated polyclonal anti-C3 antibody. […] The percent inhibition was plotted against the peptide concentration, and the resulting data set was fitted to the logistic dose-response function using Origin 7.0 software. IC50 values were obtained from the fitted parameters that produced the lowest χ^2 value. Each analog was assayed at least three to seven times.
The ability of the compstatin analogs to inhibit the activation of the classical pathway of complement was assessed by ELISA as described in Example 1. Each conjugate was assayed at least three times.
For orientation: ELISA stands for enzyme-linked immunosorbent assay.

The target in the next assay is T1, C3b (Homo sapiens, UniProt P01024).
T1 construct: biotin (chemical biotinylation of C3b)
As to the kind of experiment: SPR analysis of binding kinetics to immobilized C3b. Particulars: for kd: 25° C., PBS-T; for kon: pH 7.4, read-out: ka; for rKD SPR / rka / rkd: relative to peptide 14. As for the experimental part: (§1) The kinetics of the interaction between C3b and each compstatin analog was analyzed by SPR on a Biacore 3000 instrument (GE Healthcare Corp., Piscataway, N.J.) at 25° C. using PBS-T (10 mM sodium phosphate, 150 mM NaCl, 0.005% Tween-20, pH 7.4) as the running buffer, as described above. In brief, biotinylated C3b (30 μg/mL) was immobilized on a streptavidin-coated sensor chip, and a two-fold serial dilution series (1 μM-500 pM) of each analog was injected for 2 min at 30 μl/min, with a dissociation phase of 5-10 min. Peptide [Trp(Me)^4]-Ac-compstatin was included in each experimental series as an internal control and reference. Data analysis was performed using Scrubber (BioLogic Software, Campbell, Australia). The signals from an untreated flow cell and an ensemble of buffer blank injections were subtracted to correct for buffer effects and injection artifacts. Processed biosensor data were globally fitted to a 1:1 Langmuir binding model, and the equilibrium dissociation constant (KD) was calculated from the equation KD=kd/ka. Peptide solutions were injected in duplicate in every experiment, and each screening assay was performed at least twice.
as §1, with “in Example 1.” for “above.”, “μg/ml)” for “μg/mL)”, “Peptide [Trp(Me)^4]-Ac-compstatin was included in each experimental series as an internal control and reference.” left out
In general terms: In SPR one partner is held on a chip, and binding of the other changes the refractive index at the surface.

For the next assay, the target named is T2, C3 (Homo sapiens, UniProt P01024).
T2 construct: C3 was purified from fresh human plasma; from tissue; host or cells: fresh human plasma (blood bank of the Hospital of the University of Pennsylvania)
Kind of assay: ITC analysis of binding to C3. As to conditions: for ΔH / −TΔS / ΔG: ITC; for ΔG: ΔG=ΔH−TΔS; for rKD ITC / ΔΔG / ΔΔH / −TΔΔS: relative to peptide 14. As for the experimental part:
C3 was purified from fresh human plasma obtained from the blood bank of the Hospital of the University of Pennsylvania. In brief, the plasma was fractionated with 15% (w/v) PEG 3350, and the pellet was resuspended in 20 mM phosphate buffer, pH 7.8, and then subjected to anion-exchange chromatography on a DEAE-HR 40 column (50×5 cm; Millipore Inc., Billerica, Mass.) with the same buffer. Proteins were eluted with 6 L of a linear gradient (15-70%) of 20 mM phosphate buffer, pH 7.8, containing 500 mM NaCl. C3 was further purified on a size-exclusion Superdex 200 26/60 column (Amersham Biosciences) and a Mono S column (Amersham Biosciences) to separate C3 from C3(H2O).
All titrations were performed in PBS (10 mM phosphate buffer with 150 mM NaCl, pH 7.4) at 25° C. using multiple peptide injections of 2-7 μL each. The raw isotherms were corrected for the heats of dilution by subtracting the isotherms representing peptide injections into the buffer. The resulting isotherms were fitted to a single site of sites models using Origin 7.0 software, and the model that produced the lowest χ^2 value was deemed to be appropriate for the respective data set. The Gibbs free energy was calculated as ΔG=ΔH−TΔS. Each experiment was repeated at least twice.

T2 sequence (P01024 23-667 limits assumed): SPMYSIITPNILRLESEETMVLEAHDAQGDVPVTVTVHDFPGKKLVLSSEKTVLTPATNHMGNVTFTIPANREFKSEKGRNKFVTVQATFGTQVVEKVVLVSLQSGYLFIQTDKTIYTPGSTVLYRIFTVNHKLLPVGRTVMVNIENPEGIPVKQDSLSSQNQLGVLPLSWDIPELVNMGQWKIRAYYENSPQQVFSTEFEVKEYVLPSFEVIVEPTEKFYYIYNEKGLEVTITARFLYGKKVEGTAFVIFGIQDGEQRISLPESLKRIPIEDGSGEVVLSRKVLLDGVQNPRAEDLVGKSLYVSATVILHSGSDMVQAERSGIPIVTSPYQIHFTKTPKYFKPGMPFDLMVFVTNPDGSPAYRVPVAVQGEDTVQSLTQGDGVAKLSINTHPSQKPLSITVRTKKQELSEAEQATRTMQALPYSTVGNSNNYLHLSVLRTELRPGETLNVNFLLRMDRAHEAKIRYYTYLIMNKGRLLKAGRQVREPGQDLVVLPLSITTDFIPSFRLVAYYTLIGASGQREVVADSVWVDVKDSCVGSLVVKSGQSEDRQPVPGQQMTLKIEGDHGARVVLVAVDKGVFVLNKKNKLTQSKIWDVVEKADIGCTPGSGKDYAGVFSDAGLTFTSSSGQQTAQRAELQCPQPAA
T2 sequence (P01024 672-1663 limits assumed): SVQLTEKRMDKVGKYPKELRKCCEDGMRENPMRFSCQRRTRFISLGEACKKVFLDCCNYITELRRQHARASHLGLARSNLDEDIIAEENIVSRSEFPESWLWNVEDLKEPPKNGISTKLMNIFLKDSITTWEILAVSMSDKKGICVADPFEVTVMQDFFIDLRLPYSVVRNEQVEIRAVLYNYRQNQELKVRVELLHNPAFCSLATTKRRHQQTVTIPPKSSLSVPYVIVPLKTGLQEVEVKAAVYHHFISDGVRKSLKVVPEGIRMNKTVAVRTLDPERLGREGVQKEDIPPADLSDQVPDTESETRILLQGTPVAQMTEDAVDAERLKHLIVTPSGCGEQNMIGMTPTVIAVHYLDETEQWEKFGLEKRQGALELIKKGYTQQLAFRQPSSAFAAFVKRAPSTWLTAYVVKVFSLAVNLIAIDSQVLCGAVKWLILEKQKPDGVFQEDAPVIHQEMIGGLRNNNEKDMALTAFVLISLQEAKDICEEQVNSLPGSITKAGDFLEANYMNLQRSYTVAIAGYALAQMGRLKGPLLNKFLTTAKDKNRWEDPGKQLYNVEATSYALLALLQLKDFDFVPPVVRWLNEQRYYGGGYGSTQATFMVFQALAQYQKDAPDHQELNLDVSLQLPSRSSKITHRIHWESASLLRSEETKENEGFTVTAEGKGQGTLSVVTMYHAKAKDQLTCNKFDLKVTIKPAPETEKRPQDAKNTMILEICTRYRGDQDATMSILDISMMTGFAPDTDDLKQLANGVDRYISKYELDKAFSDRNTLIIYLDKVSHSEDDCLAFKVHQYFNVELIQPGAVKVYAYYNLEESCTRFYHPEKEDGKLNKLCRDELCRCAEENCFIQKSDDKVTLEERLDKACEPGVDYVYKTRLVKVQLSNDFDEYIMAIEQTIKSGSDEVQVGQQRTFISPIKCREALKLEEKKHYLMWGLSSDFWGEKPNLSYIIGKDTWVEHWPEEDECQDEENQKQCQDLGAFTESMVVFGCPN
T1 sequence (P01024 23-667 limits assumed): as the sequence (P01024 23-667 limits assumed) above
T1 sequence (P01024 749-1663 limits assumed): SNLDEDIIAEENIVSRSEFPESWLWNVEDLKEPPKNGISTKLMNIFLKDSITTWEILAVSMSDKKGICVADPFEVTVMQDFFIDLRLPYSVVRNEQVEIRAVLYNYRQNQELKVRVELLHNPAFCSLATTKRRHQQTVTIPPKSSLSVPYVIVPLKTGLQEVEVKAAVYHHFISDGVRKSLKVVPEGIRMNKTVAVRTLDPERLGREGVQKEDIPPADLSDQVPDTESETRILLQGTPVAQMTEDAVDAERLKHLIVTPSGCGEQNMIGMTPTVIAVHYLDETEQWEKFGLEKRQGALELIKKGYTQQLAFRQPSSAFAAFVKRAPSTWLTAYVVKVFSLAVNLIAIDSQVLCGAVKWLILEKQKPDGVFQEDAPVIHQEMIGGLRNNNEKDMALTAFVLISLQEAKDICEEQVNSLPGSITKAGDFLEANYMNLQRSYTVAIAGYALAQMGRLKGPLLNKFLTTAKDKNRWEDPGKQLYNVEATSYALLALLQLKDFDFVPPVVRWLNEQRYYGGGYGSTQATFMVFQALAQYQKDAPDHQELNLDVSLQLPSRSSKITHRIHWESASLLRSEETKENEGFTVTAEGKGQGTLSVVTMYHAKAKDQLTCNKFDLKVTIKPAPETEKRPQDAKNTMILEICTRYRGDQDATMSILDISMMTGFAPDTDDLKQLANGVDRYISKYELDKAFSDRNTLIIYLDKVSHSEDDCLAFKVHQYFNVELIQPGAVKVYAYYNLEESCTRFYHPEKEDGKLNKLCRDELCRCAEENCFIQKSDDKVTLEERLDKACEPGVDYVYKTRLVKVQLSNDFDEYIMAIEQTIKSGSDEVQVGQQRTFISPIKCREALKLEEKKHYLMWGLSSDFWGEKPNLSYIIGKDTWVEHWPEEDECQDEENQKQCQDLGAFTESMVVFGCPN

Consider `CCCC[C@H](NC(=O)[C@@H]1CSSC[C@H](NC(=O)[C@@H](NC(C)=O)[C@@H](C)CC)C(=O)N[C@@H](C(C)C)C(=O)N[C@@H](Cc2cn(C)c3ccccc23)C(=O)N[C@@H](CCC(N)=O)C(=O)N[C@@H](CC(=O)O)C(=O)N[C@@H](Cc2c[nH]c3ccccc23)C(=O)N(C)CC(=O)N[C@@H](C)C(=O)N[C@@H](Cc2c[nH]cn2)C(=O)N[C@@H](CCCNC(=N)N)C(=O)N1)C(N)=O` [Peptide 19, Ac−Ic[CV(^1−MeW)QDW(^N−MeG)AHRC](Nle)-NH2] (Ac-ICV[Trp(1-Me)]QDW[Sar]AHRC[Nle]-NH2; disulfide 2-12), for which the half-inhibitory concentration (IC50) (in general, the midpoint of a concentration-inhibition curve) in assay [1] (Table 1-2) is 0.109 µM. Besides, in assay [1] (exemplary analogs table), the IC50 is 0.109 µM. The molecule further displayed a rP in assay [1] of 1.9. Moreover, at C3b (SPR), the kd is reported as 6.6 10^−3/s. In addition, on C3b, the kon came to 1.5e+06 M⁻¹ s⁻¹, the “rKD SPR” value came to 2.7, the rka was 1.5 and the rkd amounted to 1.7.
As for “Ac-I[CV(NMe)YQDWGAHRC]T-NH2 (Ac-ICV[NMeY]QDWGAHRCT-NH2; disulfide 2-12; SMILES CC[C@H](C)[C@H](NC(C)=O)C(=O)N[C@H]1CSSC[C@@H](C(=O)N[C@H](C(N)=O)[C@@H](C)O)NC(=O)[C@H](CCCNC(=N)N)NC(=O)[C@H](Cc2c[nH]cn2)NC(=O)[C@H](C)NC(=O)CNC(=O)[C@H](Cc2c[nH]c3ccccc23)NC(=O)[C@H](CC(=O)O)NC(=O)[C@H](CCC(N)=O)NC(=O)[C@H](Cc2ccc(O)cc2)N(C)C(=O)[C@H](C(C)C)NC1=O) [Peptide 4]”, the “inhibition of complement activation, result in words” value (“inhibition of complement activation” for short) in assay [1] is “completely inactive”.
In the case of `CC[C@H](C)[C@H](NC(C)=O)C(=O)N[C@H]1CSSC[C@@H](C(=O)N[C@@H](CC(C)C)C(N)=O)NC(=O)[C@H](CCCNC(=N)N)NC(=O)[C@H](Cc2c[nH]cn2)NC(=O)[C@H](C)NC(=O)CN(C)C(=O)[C@H](Cc2c[nH]c3ccccc23)NC(=O)[C@H](CC(=O)O)NC(=O)[C@H](CCC(N)=O)NC(=O)[C@H](Cc2cn(C)c3ccccc23)NC(=O)[C@H](C(C)C)NC1=O` [Peptide 18, Ac−Ic[CV(^1−MeW)QDW(^N−MeG)AHRC]L-NH2] (Ac-ICV[Trp(1-Me)]QDW[Sar]AHRCL-NH2; disulfide 2-12), the IC50 in assay [1] (Table 1-2) was found to be 0.108 µM. The IC50 in assay [1] (exemplary analogs table) was 0.108 µM. Moreover, the rP in assay [1] was determined as 1.9. Moreover, the kd at C3b (SPR) was 6.0 10^−3/s. Also, on C3b, the kon stood at 1.3e+06 M⁻¹ s⁻¹, the “rKD SPR” value turned out to be 2.6, the rka came out at 1.3 and the rkd is 1.9.
Turning to `CC[C@H](C)[C@H](NC(=O)[C@@H]1CSSC[C@H](NC(=O)[C@@H](NC(C)=O)[C@@H](C)CC)C(=O)N[C@@H](C(C)C)C(=O)N[C@@H](Cc2cn(C)c3ccccc23)C(=O)N[C@@H](CCC(N)=O)C(=O)N[C@@H](CC(=O)O)C(=O)N[C@@H](Cc2c[nH]c3ccccc23)C(=O)NCC(=O)N[C@@H](C)C(=O)N[C@@H](Cc2c[nH]cn2)C(=O)N[C@@H](CCCNC(=N)N)C(=O)N1)C(N)=O` [Peptide 16], at C3, the ΔH was -16.6 kcal/mol, the “−TΔS” value is recorded as 5.7 kcal/mol, the ΔG is -10.9 kcal/mol and the “rKD ITC” value is given as 1.2. For the same molecule, at C3, the ΔΔG is -0.2 kcal/mol, the ΔΔH is given as 1.0 kcal/mol and the “−TΔΔS” value is -1.3 kcal/mol. At C3b (SPR), the kd is listed as 11.0 10^−3/s. Moreover, at C3b, the kon turned out to be 1e+06 M⁻¹ s⁻¹, the “rKD SPR” value was 1.1, the rka was determined as 1.0 and the rkd came out at 1.0.
Turning to “Ac-I[CVYQDWG(NMe)AHRC]T-NH2 (Ac-ICVYQDWG[NMeA]HRCT-NH2; disulfide 2-12; SMILES CC[C@H](C)[C@H](NC(C)=O)C(=O)N[C@H]1CSSC[C@@H](C(=O)N[C@H](C(N)=O)[C@@H](C)O)NC(=O)[C@H](CCCNC(=N)N)NC(=O)[C@H](Cc2c[nH]cn2)NC(=O)[C@H](C)N(C)C(=O)CNC(=O)[C@H](Cc2c[nH]c3ccccc23)NC(=O)[C@H](CC(=O)O)NC(=O)[C@H](CCC(N)=O)NC(=O)[C@H](Cc2ccc(O)cc2)NC(=O)[C@H](C(C)C)NC1=O) [Peptide 9]”, the “inhibition of complement activation” value in assay [1] is “completely inactive”.
For `CC[C@H](C)[C@H](NC(C)=O)C(=O)N[C@H]1CSSC[C@@H](C(=O)N(C)[C@H](C(N)=O)[C@@H](C)CC)NC(=O)[C@H](CCCNC(=N)N)NC(=O)[C@H](Cc2c[nH]cn2)NC(=O)[C@H](C)NC(=O)CN(C)C(=O)[C@H](Cc2c[nH]c3ccccc23)NC(=O)[C@H](CC(=O)O)NC(=O)[C@H](CCC(N)=O)NC(=O)[C@H](Cc2cn(C)c3ccccc23)NC(=O)[C@H](C(C)C)NC1=O` [Peptide 21, Ac−Ic[CV(^1−MeW)QDW(^N−MeG)AHRC](^N−MeI)-NH2], in assay [1] (Table 1-2), the 50% inhibitory concentration (IC50) came out at 0.062 µM. Also, in assay [1] (exemplary analogs table), the half-inhibitory concentration (IC50) came to 0.062 µM. Moreover, in assay [1], the rP was determined as 3.3. On C3, the ΔH is -17.1 kcal/mol, the “−TΔS” value is 5.7 kcal/mol, the ΔG was -11.4 kcal/mol and the “rKD ITC” value amounted to 3.3. For the same molecule, on C3, the ΔΔG is -0.7 kcal/mol, the ΔΔH was determined as 0.5 kcal/mol and the “−TΔΔS” value is -1.3 kcal/mol. For the same molecule, at C3b (SPR), the “fold stronger affinity than peptide 14” value is “more than 5 fold” and the kd is given as 3.5 10^−3/s. Besides, at C3b, the kon amounted to 1.5e+06 M⁻¹ s⁻¹, the “rKD SPR” value is reported as 5.2, the rka was found to be 1.5 and the rkd was found to be 3.2.
Consider “Ac-I[C(NMe)VYQDWGAHRC]T-NH2 (Ac-IC[NMeV]YQDWGAHRCT-NH2; disulfide 2-12; SMILES CC[C@H](C)[C@H](NC(C)=O)C(=O)N[C@H]1CSSC[C@@H](C(=O)N[C@H](C(N)=O)[C@@H](C)O)NC(=O)[C@H](CCCNC(=N)N)NC(=O)[C@H](Cc2c[nH]cn2)NC(=O)[C@H](C)NC(=O)CNC(=O)[C@H](Cc2c[nH]c3ccccc23)NC(=O)[C@H](CC(=O)O)NC(=O)[C@H](CCC(N)=O)NC(=O)[C@H](Cc2ccc(O)cc2)NC(=O)[C@H](C(C)C)N(C)C1=O) [Peptide 3]”, for which, in assay [1], the “inhibition of complement activation” value was “completely inactive”.
